The nature of data set [1]: Serum lipids, change from baseline to week 24. Type of data set: in vivo, human. Conditions: LS mean. The protocol: In general, subjects fast (no food or drink, except water) for approximately 10 hours prior to the blood sample collection.
Additional tests include HIV-1 (reflex to HIV-1 RNA), HBV (HBsAg), HCV (reflex to HCV RNA) serology, homeostasis model assessment of Insulin resistance (HOMA-IR, based on fasting glucose and insulin), eGFR as calculated by MDRD, HbA1c, C-peptide, calcitonin, insulin, lipid panel, genomic sample collection, ELF™ Test, and FibroTest®. Biomarker tests include, but are not limited to C-reactive protein (CRP), NMR LipoProfile®, apolipoproteins, and adiponectin.
Imaging assessments (MRI-PDFF, liver stiffness by 2-D magnetic resonance elastography [MRE] and TE) were conducted at screening (or within 4 weeks prior to screening), and at weeks 12 and 24. TE was performed by experienced operators, and MRI-PDFF and MRE images were analyzed by a central reader as previously described [Patel et al. Hepatology. 2020; 72(1):58-71; Loomba et al. Gastroenterology. 2018; 155(5):1463-1473; Loomba et al. Hepatology. 2020 Nov. 10. doi: 10.1002/hep.31622]. Serum samples were collected at screening, baseline, and every 4 weeks through to week 24 for clinical laboratory values; blood biomarkers were assessed at screening, baseline, and weeks 12 and 24.
All protocol-defined, efficacy analyses were exploratory in nature and descriptive statistics are provided. Comparative analyses between combination regimens and semaglutide monotherapy were conducted post-hoc. For evaluation of changes from baseline to week 24, analysis of covariance (ANCOVA) with adjustment for baseline value and diabetes status was used, and least-squares (LS) means, LS mean differences, associated 95% confidence intervals (CI), and p-values were calculated. Proportions of binary responders were compared by Fisher's exact test.

A short description of data set [2]: Safety assessments (adverse events, laboratory abnormalities, vital signs) in 24-week open-label clinical study. The class given is in vivo, human. An excerpt:
This is a proof of concept, open-label study evaluating the safety, tolerability, and efficacy of monotherapy and combination regimens in subjects with NASH. Subjects meeting the study's entry criteria are randomly assigned in a 1:1:1:1:1 ratio to 1 of 5 treatment groups, with approximately 20 subjects in each group, as shown in the FIG. 2. Randomization is stratified by the presence or absence of type 2 diabetes mellitus, as determined by medical history or based on the Screening laboratory values if previously undiagnosed (hemoglobin A1c [HbA1c]≥6.5%). The study may last up to 35 weeks, which includes a 2-week Screening period, a 2 week Pre-Treatment period, up to a 24-week Treatment period, and a 7-week Follow-Up period.
Study drug dosing and administration is as follows, based on treatment group randomization as summarized in FIG. 2: • Treatment Group A: Semaglutide administered subcutaneously with pre-filled pen-injector once weekly. • Treatment Group B: Semaglutide administered subcutaneously with pre-filled pen-injector once weekly, one firsocostat 20 mg tablet, administered orally once daily without regard to food. • Treatment Group C: Semaglutide administered subcutaneously with pre-filled pen-injector once weekly, one cilofexor 30 mg tablet, administered orally once daily without regard to food. • Treatment Group D: Semaglutide administered subcutaneously with pre-filled pen-injector once weekly, one cilofexor 100 mg tablet, administered orally once daily without regard to food. • Treatment Group E: Semaglutide administered subcutaneously with pre-filled pen-injector once weekly, one firsocostat 20 mg tablet administered orally once daily and one cilofexor 30 mg tablet administered orally once daily, both without regard to food.
Semaglutide was administered by subcutaneous injection once weekly with a prefilled pen-injector and was initiated at a starting dose of […], which was increased at 4-week intervals (to 0.5 mg, 1.0 mg, and 1.7 mg) until the recommended target dose of 2.4 mg was reached (from week 17 onwards). Patients who could not tolerate the planned dose-escalation schedule were encouraged to extend any single dose step for a maximum of one additional week, and to re-attempt dose escalation to 2.4 mg at least once. Cilofexor and firsocostat were given orally once daily with or without food.
Safety assessments included adverse events, clinical laboratory assessments, vital signs, electrocardiograms (ECG), and physical examination. Clinical and laboratory adverse events were coded using the Medical Dictionary for Regulatory Activities (MedDRA), version 23.0.
Safety analyses were performed on the safety analysis set, which included all patients who took at least one dose of any study drug. Efficacy analyses were performed on the full analysis set (FAS), which included all randomized patients who received at least one dose of any study drug. Since all dosed subjects were randomized, these two analysis sets included the same patients.

The structures appear in SMILES notation.

In the case of `CC[C@H](C)[C@H](NC(=O)[C@H](Cc1ccccc1)NC(=O)[C@H](CCC(=O)O)NC(=O)[C@H](CCCCNC(=O)COCCOCCNC(=O)COCCOCCNC(=O)CC[C@H](NC(=O)CCCCCCCCCCCCCCCCC(=O)O)C(=O)O)NC(=O)[C@H](C)NC(=O)[C@H](C)NC(=O)[C@H](CCC(N)=O)NC(=O)CNC(=O)[C@H](CCC(=O)O)NC(=O)[C@H](CC(C)C)NC(=O)[C@H](Cc1ccc(O)cc1)NC(=O)[C@H](CO)NC(=O)[C@H](CO)NC(=O)[C@@H](NC(=O)[C@H](CC(=O)O)NC(=O)[C@H](CO)NC(=O)[C@@H](NC(=O)[C@H](Cc1ccccc1)NC(=O)[C@@H](NC(=O)CNC(=O)[C@H](CCC(=O)O)NC(=O)C(C)(C)NC(=O)[C@@H](N)Cc1cnc[nH]1)[C@@H](C)O)[C@@H](C)O)C(C)C)C(=O)N[C@@H](C)C(=O)N[C@@H](Cc1c[nH]c2ccccc12)C(=O)N[C@@H](CC(C)C)C(=O)N[C@H](C(=O)N[C@@H](CCCNC(=N)N)C(=O)NCC(=O)N[C@@H](CCCNC(=N)N)C(=O)NCC(=O)O)C(C)C` [Semaglutide 2.4 mg, Semaglutide], in data set [1], the “HDL cholesterol, least squares mean change from baseline to week 24” value is -1 mg/dL; the “LDL cholesterol, least squares mean change from baseline to week 24” value was -9 mg/dL; the “Total cholesterol, least squares mean change from baseline to week 24” value was -15 mg/dL; the “Triglycerides, least squares mean change from baseline to week 24” value was -28 mg/dL. The “VLDL cholesterol, least squares mean change from baseline to week 24” value in data set [1] is -7 mg/dL. Besides, in data set [2] (human, in vivo), the Abdominal distension came to 0 n, the Gastroenteritis is listed as 0 n, the Gastroesophageal reflux disease was 0 n and the Hypoglycaemia was determined as 0 n. Also, in data set [2] (human, in vivo), the “Laboratory abnormalities, Grade 3” value was found to be 0 n; the “Laboratory abnormalities, Grade 4” value worked out at 0 n; the “Pruritus (adverse event of interest)” value came out at 0 n; the “Serious adverse events (nature)” value is “grade 3 diarrhea and vomiting”. In addition, the Death in data set [2] (patients) is 0 n.

For the origin of these results see patent US20220047678A1, “Combination Therapy for Treatment of Liver Disease” (Gilead Sciences, Inc., priority 2020, published 2022).
